This note sets out measurements from ChEMBL document CHEMBL1641504, “Characterization and anions inhibition studies of an α-carbonic anhydrase from the teleost fish Dicentrarchus labrax” (Bioorg Med Chem, 2011).

Each structure is given as a SMILES string. A value given as a limit tells only on which side of the number the result lay.

Among the targets are Carbonic anhydrase 9 (Homo sapiens, UniProt Q16790); Carbonic anhydrase 1 (Homo sapiens, UniProt P00915); Carbonic anhydrase 4 (Homo sapiens, UniProt P22748); Carbonic anhydrase 2 (Homo sapiens, UniProt P00918).
Assay [1] has as its target Carbonic anhydrase 5A, mitochondrial (Homo sapiens, UniProt P35218).
Description: Inhibition of human carbonic anhydrase 5 by Lineweaver-Burk curves

Chain of Carbonic anhydrase 5A, mitochondrial (P35218 whole entry): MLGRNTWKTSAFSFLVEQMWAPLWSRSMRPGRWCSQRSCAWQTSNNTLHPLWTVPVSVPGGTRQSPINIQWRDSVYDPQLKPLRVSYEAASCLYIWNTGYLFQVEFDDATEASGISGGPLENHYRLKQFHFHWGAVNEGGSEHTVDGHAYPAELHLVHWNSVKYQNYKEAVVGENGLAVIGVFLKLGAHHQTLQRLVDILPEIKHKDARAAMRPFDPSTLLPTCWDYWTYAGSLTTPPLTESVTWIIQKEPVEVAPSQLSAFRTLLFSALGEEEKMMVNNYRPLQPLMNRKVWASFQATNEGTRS
Chain of Carbonic anhydrase 1 (P00915 whole entry): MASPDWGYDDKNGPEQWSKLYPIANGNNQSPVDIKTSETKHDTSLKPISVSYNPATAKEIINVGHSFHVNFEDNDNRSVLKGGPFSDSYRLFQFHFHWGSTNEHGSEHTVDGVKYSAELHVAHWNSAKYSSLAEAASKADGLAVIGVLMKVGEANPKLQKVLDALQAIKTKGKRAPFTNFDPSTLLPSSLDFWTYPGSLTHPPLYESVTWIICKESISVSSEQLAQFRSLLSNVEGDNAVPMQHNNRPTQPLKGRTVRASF
Chain of Carbonic anhydrase 4 (P22748 whole entry): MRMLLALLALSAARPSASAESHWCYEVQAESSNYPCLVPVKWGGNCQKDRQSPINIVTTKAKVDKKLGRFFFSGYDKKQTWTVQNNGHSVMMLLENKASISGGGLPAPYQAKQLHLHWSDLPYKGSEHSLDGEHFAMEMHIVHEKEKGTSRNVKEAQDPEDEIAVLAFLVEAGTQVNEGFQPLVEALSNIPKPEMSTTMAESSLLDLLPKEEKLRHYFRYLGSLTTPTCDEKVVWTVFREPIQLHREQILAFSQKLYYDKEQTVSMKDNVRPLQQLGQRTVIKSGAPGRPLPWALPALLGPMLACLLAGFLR
Description for Carbonic anhydrase 1: Inhibition of human carbonic anhydrase 1 by Lineweaver-Burk curves
Description for Carbonic anhydrase 4: Inhibition of human carbonic anhydrase 4 by Lineweaver-Burk curves
Description for Carbonic anhydrase 9: Inhibition of human carbonic anhydrase 9 by Lineweaver-Burk curves

On to `[Br-].[K+]` [POTASSIUM BROMIDE], for which the Ki is 16 mM on Carbonic anhydrase 9, 50 mM in assay [1], 4 mM on Carbonic anhydrase 1 and 0.09 mM on Carbonic anhydrase 4.

`[Cl-].[K+]` [POTASSIUM CHLORIDE]: the Ki is 33 mM on Carbonic anhydrase 9; 156 mM in assay [1]; 6 mM at Carbonic anhydrase 1; 0.09 mM at Carbonic anhydrase 4; over 200 mM on Carbonic anhydrase 2.

Regarding `[F-].[K+]` [POTASSIUM FLUORIDE], the values for the Ki (on Carbonic anhydrase 9; in assay [1]; at Carbonic anhydrase 4) were 48 mM, 241 mM and 0.07 mM, respectively.

As for `[I-].[K+]` [POTASSIUM IODIDE], the Ki is 7 mM at Carbonic anhydrase 9, 25 mM in assay [1], 0.3 mM at Carbonic anhydrase 1 and 0.08 mM on Carbonic anhydrase 4.

For `O=[N+]([O-])[O-].[K+]` [POTASSIUM NITRATE], the Ki on Carbonic anhydrase 9 turned out to be 46 mM; in assay [1], 16 mM; at Carbonic anhydrase 1, 7 mM; on Carbonic anhydrase 4, 58.7 mM.

In the case of `[N-]=[N+]=[N-]` [SODIUM AZIDE], the Ki was found to be 0.005 mM on Carbonic anhydrase 9 and 0.3 mM in assay [1].

As to `O=NO` [SODIUM NITRITE], in assay [1], the Ki amounted to 16 mM.

With `O=S(=O)([O-])[O-].[Na+].[Na+]` [SODIUM SULFATE ANHYDROUS], the Ki in assay [1] was found to be 680 mM; on Carbonic anhydrase 4 it was 9 mM.

In the case of `N#C[S-].[Na+]` [THIOCYANATE SODIUM], the Ki on Carbonic anhydrase 9 came out at 0.13 mM; in assay [1], 0.74 mM; at Carbonic anhydrase 4 it was 39 mM.

A word on the Ki: it is the dissociation constant of the complex between target and ligand, obtained from inhibition or displacement. Low values mean higher affinity, high ones lower affinity.
